These are literature values, as cited in patent publication US6706892B1, “Pulmonary delivery for bioconjugation” (priority 1999, dated 2004).

One data set has as its system breast cancer. To be noted: in vivo.
For data set [1] the following is noted: in vivo.

With `O=C(c1ccc(OCCN2CCCCC2)cc1)c1c(-c2ccc(O)cc2)sc2cc(O)ccc12` [Raloxifene], the “cut in the risk of breast cancer” value with breast cancer was not above 60%.
As to `CC1=NS(=O)(=O)c2cc(Cl)ccc2N1` [Diazoxide], the half-life result in data set [1] was “about 24 hours”.
